In ChEMBL document CHEMBL1128106, “Oligonucleotide duplex stability controlled by the 7-substituents of 7-deazaguanine bases” (Bioorg Med Chem Lett, 1995) one finds half-life data, which are given here for six compounds.

SMILES strings stand for the structures.

Data set [1] in a line: Half life (t) of enzymatic phosphodiester hydrolysis of compound towards calf spleen (CS-PDE) at a concentration of 20 microg. Type of data set: ADME, Bos taurus. As to conditions: cattle, calf spleen phosphodiesterase (CS-PDE).
Data set [2] can be described thus: Half life (t) of enzymatic phosphodiester hydrolysis of compound towards snake venom (SV-PDE) at a concentration of 4 microg. Type of data set: ADME. As to conditions: serpentes, snake venom phosphodiesterase (SV-PDE).

Consider `COP(=O)(OC[C@H]1O[C@@H](n2ccc(N)nc2=O)C[C@@H]1OP(=O)(O)OC[C@H]1O[C@@H](n2cc(I)c3c(=O)[nH]c(N)nc32)C[C@@H]1OP(=O)(O)OC[C@H]1O[C@@H](n2ccc(N)nc2=O)C[C@@H]1O)O[C@H]1C[C@H](n2cc(I)c3c(=O)[nH]c(N)nc32)O[C@@H]1COP(=O)(O)O[C@H]1C[C@H](n2ccc(N)nc2=O)O[C@@H]1COP(=O)(O)O[C@H]1C[C@H](n2cc(I)c3c(=O)[nH]c(N)nc32)O[C@@H]1COP(=O)(O)O[C@H]1C[C@H](n2ccc(N)nc2=O)O[C@@H]1COP(=O)(O)O[C@H]1C[C@H](n2cc(I)c3c(=O)[nH]c(N)nc32)O[C@@H]1COP(=O)(O)O` (some centres not stated), for which the half-life is more than 1200 min in data set [1] and 17 min in data set [2].

For the compound `Nc1ccn([C@H]2C[C@H](OP(=O)(O)OC[C@H]3O[C@@H](n4cnc5c(=O)[nH]c(N)nc54)C[C@@H]3OP(=O)(O)OC[C@H]3O[C@@H](n4ccc(N)nc4=O)C[C@@H]3OP(=O)(O)OC[C@H]3O[C@@H](n4cnc5c(=O)[nH]c(N)nc54)C[C@@H]3OP(=O)(O)OC[C@H]3O[C@@H](n4ccc(N)nc4=O)C[C@@H]3OP(=O)(O)OC[C@H]3O[C@@H](n4cnc5c(=O)[nH]c(N)nc54)CC3OP(=O)(O)OC[C@H]3O[C@@H](n4ccc(N)nc4=O)C[C@@H]3O)[C@@H](COP(=O)(O)O[C@H]3C[C@H](n4cnc5c(=O)[nH]c(N)nc54)O[C@@H]3COP(=O)(O)O)O2)c(=O)n1` (some centres not stated), the half-life in data set [1] amounted to 82 min; in data set [2], 2.5 min.

For `COP(=O)(OC[C@H]1O[C@@H](n2ccc(N)nc2=O)C[C@@H]1OP(=O)(O)OC[C@H]1O[C@@H](n2cc(C)c3c(=O)[nH]c(N)nc32)C[C@@H]1OP(=O)(O)OC[C@H]1O[C@@H](n2ccc(N)nc2=O)C[C@@H]1O)O[C@H]1C[C@H](n2cc(C)c3c(=O)[nH]c(N)nc32)O[C@@H]1COP(=O)(O)O[C@H]1C[C@H](n2ccc(N)nc2=O)O[C@@H]1COP(=O)(O)O[C@H]1C[C@H](n2cc(C)c3c(=O)[nH]c(N)nc32)O[C@@H]1COP(=O)(O)O[C@H]1C[C@H](n2ccc(N)nc2=O)O[C@@H]1COP(=O)(O)O[C@H]1C[C@H](n2cc(C)c3c(=O)[nH]c(N)nc32)O[C@@H]1COP(=O)(O)O` (some centres not stated), the half-life in data set [1] is more than 1200 min; in data set [2], 16 min.

For the compound `COP(=O)(OC[C@H]1O[C@@H](n2ccc(N)nc2=O)C[C@@H]1OP(=O)(O)OC[C@H]1O[C@@H](n2ccc3c(=O)[nH]c(N)nc32)C[C@@H]1OP(=O)(O)OC[C@H]1O[C@@H](n2ccc(N)nc2=O)C[C@@H]1O)O[C@H]1C[C@H](n2ccc3c(=O)[nH]c(N)nc32)O[C@@H]1COP(=O)(O)O[C@H]1C[C@H](n2ccc(N)nc2=O)O[C@@H]1COP(=O)(O)O[C@H]1C[C@H](n2ccc3c(=O)[nH]c(N)nc32)O[C@@H]1COP(=O)(O)O[C@H]1C[C@H](n2ccc(N)nc2=O)O[C@@H]1COP(=O)(O)O[C@H]1C[C@H](n2ccc3c(=O)[nH]c(N)nc32)O[C@@H]1COP(=O)(O)O` (some centres not stated), the values for the half-life in data set [1] and in data set [2] were approximately 1000 min and 1.3 min, respectively.

As to `Nc1nc2c(ncn2[C@H]2C[C@H](O)[C@@H](COP(=O)(O)O[C@H]3C[C@H](n4cc(I)c5c(=O)[nH]c(N)nc54)O[C@@H]3COP(=O)(O)O[C@H]3C[C@H](n4cc(I)c5c(=O)[nH]c(N)nc54)O[C@@H]3COP(=O)(O)O[C@H]3C[C@H](n4cc(I)c5c(=O)[nH]c(N)nc54)O[C@@H]3COP(=O)(O)O[C@H]3C[C@H](n4cc(I)c5c(=O)[nH]c(N)nc54)O[C@@H]3COP(=O)(O)O[C@H]3C[C@H](n4cc(I)c5c(=O)[nH]c(N)nc54)O[C@@H]3COP(=O)(O)O)O2)c(=O)[nH]1`, the figures for the half-life in data set [1] and in data set [2] were more than 1200 min and 26 min, respectively.

For the compound `Nc1nc2c(ccn2[C@H]2C[C@H](OP(=O)(O)OC[C@H]3O[C@@H](n4ccc5c(=O)[nH]c(N)nc54)C[C@@H]3OP(=O)(O)OC[C@H]3O[C@@H](n4ccc5c(=O)[nH]c(N)nc54)C[C@@H]3OP(=O)(O)OC[C@H]3O[C@@H](n4ccc5c(=O)[nH]c(N)nc54)C[C@@H]3OP(=O)(O)OC[C@H]3O[C@@H](n4ccc5c(=O)[nH]c(N)nc54)C[C@@H]3OP(=O)(O)OC[C@H]3O[C@@H](n4cnc5c(=O)[nH]c(N)nc54)C[C@@H]3O)[C@@H](COP(=O)(O)O)O2)c(=O)[nH]1`, the half-life in data set [1] is more than 1200 min; in data set [2] it was 2.5 min.
